These results are taken from patent publication US10538491B2, “4,5-substituted picolinamide and picolinonitrile metabotropic glutamate receptor 2 negative allosteric modulators” (Vanderbilt University, priority 2015, dated 2020).

The structures appear in SMILES notation. A value given as a limit tells only on which side of the number the result lay.

The experiment has as its target rat mGlu2 (Rattus norvegicus (Rat), UniProt P31421). The experiment can be described thus: mGlu2 Ca2+ flux assay. Format: cell-based. The conditions noted are these: for IC50: Gα15 HEK293 cells stably expressing rat mGlu2, glutamate EC80, >10,000 = no plateau, >30,000 = no measurable activity; for remaining activity at 30 µM: amplitude of response in the presence of 30 μM test compound as percentage of maximal response to glutamate, read-out: rat mGlu2 Glu max. As for the experimental part: Gα15 HEK293 cells stably expressing rat mGlu2 were plated in black-walled, clear-bottomed, poly-D-lysine coated 384-well plates in 20 μL of assay medium (DMEM containing 10% dialyzed FBS, 20 mM HEPES, and 1 mM sodium pyruvate) at a density of 12K cells/well. The cells were grown overnight at 37° C. in the presence of 5% CO2. The next day, medium was removed and the cells incubated with 20 μL of 2.3 μM Fluo-4, AM prepared as a 2.3 mM stock in DMSO and mixed in a 1:1 ratio with 10% (w/v) pluronic acid F-127 and diluted in assay buffer (Hank's balanced salt solution, 20 mM HEPES, and 2.5 mM probenecid) for 45 minutes at 37° C. Dye was removed, 20 μL of assay buffer was added, and the plate was incubated for 5 minutes at room temperature.
Ca^2+ flux was measured using the Functional Drug Screening System (FDSS7000, Hamamatsu, Japan). After establishment of a fluorescence baseline for about 3 seconds, the compounds of the present invention were added to the cells, and the response in cells was measured. 2.3 minutes later an EC20 concentration of the mGlu2 receptor agonist glutamate was added to the cells, and the response of the cells was measured for 1.9 minutes; an EC80 concentration of agonist was added and readings taken for an additional 1.7 minutes. All test compounds were dissolved and diluted to a concentration of 10 mM in 100% DMSO. Compounds were then serially diluted 1:3 in DMSO into 10 point concentration response curves, transferred to daughter plates, and further diluted into assay buffer to a 2× stock. Calcium fluorescence measures were recorded as fold over basal fluorescence; raw data was then normalized to the maximal response to glutamate. Antagonism of the agonist response of the mGlu2 receptor in the present invention was observed as a decrease in response to nearly maximal concentrations of glutamate in the presence of compound compared to the response to glutamate in the absence of compound.
The raw data file containing all time points was used as the data source in the analysis template. This was saved by the FDSS as a tab-delimited text file. Data were normalized using a static ratio function (F/F0) for each measurement of the total 360 values per well divided by each well's initial value. Data were then reduced to peak amplitudes (Max−Initial Min) using a time range that starts approximately 3 seconds prior to the glutamate EC80 addition and continues for approximately 90 seconds. This is sufficient time to capture the peak amplitude of the cellular calcium response. Individual amplitudes were expressed as % ECMax by multiplying each amplitude by 100 and then dividing the product by the mean of the amplitudes derived from the glutamate ECMax-treated wells. IC50 values for test compounds were generated by fitting the normalized values versus the log of the test compound concentration (in mol/L) using a 4 parameter logistic equation where none of the parameters were fixed. Each of the three values collected at each concentration of test compound were weighted evenly.
For NAMs, potency (IC50) and maximum response (% Glu Max), i.e. the amplitude of response in the presence of 30 μM test compound as a percentage of the maximal response to glutamate, are reported. […] Compounds with no measurable activity are designated as “>30,000 nM” since the top concentration of compound tested in the assay is 30 μM.
Background: Calcium flux is commonly read through the fluorescence of an indicator in the cells.

Sequence of rat mGlu2 (P31421 19-872): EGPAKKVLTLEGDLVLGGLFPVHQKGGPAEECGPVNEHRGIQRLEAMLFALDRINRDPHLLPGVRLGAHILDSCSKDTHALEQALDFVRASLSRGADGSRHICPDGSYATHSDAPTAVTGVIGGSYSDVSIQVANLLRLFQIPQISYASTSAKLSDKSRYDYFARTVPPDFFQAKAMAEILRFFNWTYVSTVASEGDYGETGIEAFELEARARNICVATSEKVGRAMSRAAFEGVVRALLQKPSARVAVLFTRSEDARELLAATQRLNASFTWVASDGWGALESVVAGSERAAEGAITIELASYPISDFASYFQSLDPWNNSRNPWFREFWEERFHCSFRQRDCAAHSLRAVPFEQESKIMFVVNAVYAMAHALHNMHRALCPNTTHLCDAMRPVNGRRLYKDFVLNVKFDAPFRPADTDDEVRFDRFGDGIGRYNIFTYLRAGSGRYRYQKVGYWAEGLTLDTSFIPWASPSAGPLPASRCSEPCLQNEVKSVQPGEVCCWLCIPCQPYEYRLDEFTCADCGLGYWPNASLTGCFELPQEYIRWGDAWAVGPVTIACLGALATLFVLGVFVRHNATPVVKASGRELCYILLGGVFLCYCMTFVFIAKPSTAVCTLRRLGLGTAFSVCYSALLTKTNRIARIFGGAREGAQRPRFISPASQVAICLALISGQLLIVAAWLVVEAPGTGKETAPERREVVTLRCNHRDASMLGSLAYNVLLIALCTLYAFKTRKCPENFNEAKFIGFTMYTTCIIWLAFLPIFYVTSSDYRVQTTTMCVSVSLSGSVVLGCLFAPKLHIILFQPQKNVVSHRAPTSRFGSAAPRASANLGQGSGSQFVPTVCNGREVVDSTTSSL

Consider `CC(COc1cnc(C#N)cc1-c1ccc(F)cc1)Oc1ccnc(C(F)(F)F)c1` (stereo not shown) [Compound 63, 4-(4-fluorophenyl)-5-(2-((2-(trifluoromethyl)pyridin-4-yl)oxy)propoxy)picolinonitrile], for which the 50% inhibitory concentration (IC50) – broadly, the point on the concentration scale where inhibition reaches its midpoint – is greater than 10000 nM and the remaining activity at 30 µM came out at 30.7%. Taken in the same sequence, the figures for `NC(=O)c1cc(-c2ccc(F)cc2)c(OCCCOc2ccnc(C(F)(F)F)c2)cn1` [Compound 127, 4-(4-fluorophenyl)-5-(3-((2-(trifluoromethyl)pyridin-4-yl)oxy)propoxy)picolinamide] were 1590 nM and 2.03%.

In the case of `N#Cc1cc(-c2ccc(F)cc2)c(NCCN2CCOCC2)cn1` [Compound 2, 4-(4-fluorophenyl)-5-((2-morpholinoethyl)amino)picolinonitrile], the half-maximal inhibitory concentration (IC50) was greater than 10000 nM and the remaining activity at 30 µM stood at 47.5%. As to `N#Cc1cc(-c2ccc(F)cc2)c(OCc2ccncc2)cn1` [Compound 17, 4-(4-fluorophenyl)-5-(pyridin-4-ylmethoxy)picolinonitrile], the IC50 amounted to 1580 nM and the remaining activity at 30 µM came to 62%. Besides, under “concentration-dependent decrease in the glutamate EC80 response”, the NAM designation result is listed as “(Partial NAM)”. Regarding `NC(=O)c1cc(-c2ccc(F)cc2)c(OCc2cccnc2)cn1` [Compound 38, 4-(4-fluorophenyl)-5-(pyridin-3-ylmethoxy)picolinamide], the midpoint of inhibition, the IC50, lay at 507 ± 123 nM and the remaining activity at 30 µM is 5.84 ± 1.16%.

As for `NC(=O)c1cc(-c2ccc(F)cc2)c(OCCOc2ccc(C(F)(F)F)nc2)cn1` [Compound 115, 4-(4-fluorophenyl)-5-(2-((6-(trifluoromethyl)pyridin-3-yl)oxy)ethoxy)picolinamide], 1310 nM corresponded to half-maximal inhibition (IC50) and the remaining activity at 30 µM was 3.64%. Taken in the same sequence, the figures for `NC(=O)c1cc(-c2ccc(F)cc2)c(OCCN2CCOCC2)cn1` [Compound 94, 4-(4-fluorophenyl)-5-(2-morpholinoethoxy)picolinamide] were greater than 10000 nM and 49%. Taken in the same sequence, the figures for `NC(=O)c1cc(-c2ccc(F)cc2)c(OCc2ccc3nccn3c2)cn1` [Compound 50, 4-(4-fluorophenyl)-5-(imidazo[1,2-a]pyridin-6-ylmethoxy)picolinamide] were 129 nM and 1.41%.

With `N#Cc1cccc(COc2cnc(C(N)=O)cc2-c2ccc(F)cc2)c1` [Compound 145, 5-((3-Cyanobenzyl)oxy)-4-(4-fluorophenyl)picolinamide], the midpoint of inhibition, the IC50, lay at 429 nM and the remaining activity at 30 µM worked out at 1.5%. Taken in the same sequence, the figures for `NC(=O)c1cc(-c2ccc(F)cc2)c(NCC2CCOCC2)cn1` [Compound 132, 4-(4-fluorophenyl)-5-(((tetrahydro-2H-pyran-4-yl)methyl)amino)picolinamide] were 1050 nM and -1.48%. For `CC1CN(CCCOc2cnc(C(N)=O)cc2-c2ccc(F)cc2)CCO1` (stereo not shown) [Compound 97, 4-(4-fluorophenyl)-5-(3-(2-methylmorpholino)propoxy)picolinamide], in that order: greater than 10000 nM and 22%. Compound `N#Cc1cc(-c2ccc(F)cc2)c(OC2CCN(c3ccnc(C(F)(F)F)c3)CC2)cn1` [Compound 26, 4-(4-fluorophenyl)-5-((1-(2-(trifluoromethyl)pyridin-4-yl)piperidin-4-yl)oxy)picolinonitrile] returned an IC50 greater than 30000 nM.

As to `NC(=O)c1cc(-c2ccc(F)cc2)c(OCc2ccc(C(F)(F)F)nc2)cn1` [Compound 43, 4-(4-fluorophenyl)-5-((6-(trifluoromethyl)pyridin-3-yl)methoxy)picolinamide], the half-inhibitory concentration (IC50) came to 717 nM and the remaining activity at 30 µM was found to be 0.74%. For `Cc1ncc(OCCOc2cnc(C(N)=O)cc2-c2ccc(F)cc2)cn1` [Compound 119, 4-(4-fluorophenyl)-5-(2-((2-methylpyrimidin-5-yl)oxy)ethoxy)picolinamide], in that order: greater than 10000 nM and 20.3%.

For the compound `N#Cc1cncc(OCCOc2cnc(C(N)=O)cc2-c2ccc(F)cc2)c1` [Compound 157, 5-(2-((5-cyanopyridin-3-yl)oxy)ethoxy)-4-(4-fluorophenyl)picolinamide], the midpoint of inhibition, the IC50, lay at 691 nM and the remaining activity at 30 µM is 4.33%. `CC(Oc1cnc(C(N)=O)cc1-c1ccc(F)cc1)c1ccncc1` (stereo not shown) [Compound 48, 4-(4-fluorophenyl)-5-(1-(pyridin-4-yl)ethoxy)picolinamide]: half-maximal inhibition (IC50) required 504 nM and the remaining activity at 30 µM was 1.4%. Taken in the same sequence, the figures for `CN(CCOc1cnc(C(N)=O)cc1-c1ccc(F)cc1)c1ccnc(C(F)(F)F)c1` [Compound 55, 4-(4-fluorophenyl)-5-(2-(methyl(2-(trifluoromethyl)pyridin-4-yl)amino)ethoxy)picolinamide] were 1580 nM and 4.02%. For `CC1(C)CN(Cc2cnc(C(N)=O)cc2-c2ccc(F)cc2)CCO1` [Compound 78, 5-((2,2-dimethylmorpholino)methyl)-4-(4-fluorophenyl)picolinamide], in that order: 531 nM and -0.32%.

The compound `N#Cc1cc(-c2ccc(F)cc2)c(OCCCOc2ccnc(C(F)(F)F)c2)cn1` [Compound 67, 4-(4-fluorophenyl)-5-(3-((2-(trifluoromethyl)pyridin-4-yl)oxy)propoxy)picolinonitrile] had an IC50 greater than 30000 nM. On to `NC(=O)c1cc(-c2ccc(F)cc2)c(OCc2cccc(Br)c2F)cn1` [Compound 81, 5-((3-bromo-2-fluorobenzyl)oxy)-4-(4-fluorophenyl)picolinamide], for which the concentration for half-maximal inhibition (IC50) was determined as 1530 nM and the remaining activity at 30 µM worked out at 2.19%. For `Cn1cc(COc2cnc(C(N)=O)cc2-c2ccc(F)cc2)cn1` [Compound 53, 4-(4-fluorophenyl)-5-((1-methyl-1H-pyrazol-4-yl)methoxy)picolinamide], in that order: 1000 nM and -0.46%. Taken in the same sequence, the figures for `Cn1cc(-c2cc(C(N)=O)ncc2OCc2cc(F)cc(F)c2)cn1` [Compound 80, 5-((3,5-difluorobenzyl)oxy)-4-(1-methyl-1H-pyrazol-4-yl)picolinamide] were 4130 nM and -0.09%. For `N#Cc1cc(OCCOc2cnc(C(N)=O)cc2-c2ccc(F)cc2)ccc1F` [Compound 154, 5-(2-(3-cyano-4-fluorophenoxy)ethoxy)-4-(4-fluorophenyl)picolinamide], in that order: 1390 nM and 4.19%.

As for `COc1ccc(COc2cnc(C(N)=O)cc2-c2ccc(F)cc2)cn1` [Compound 42, 4-(4-fluorophenyl)-5-((6-methoxypyridin-3-yl)methoxy)picolinamide], it took 266 nM to reach half-maximal inhibition (IC50) and the remaining activity at 30 µM was determined as 2.2%. Consider `N#Cc1cccc(COc2cnc(C#N)cc2-c2ccc(F)cc2)c1` [Compound 11, 5-((3-cyanobenzyl)oxy)-4-(4-fluorophenyl)picolinonitrile], for which the IC50 was found to be 7110 nM and the remaining activity at 30 µM turned out to be 29.9%.

Take `NC(=O)c1cc(-c2ccc(F)cc2)c(OCCOc2cccnc2)cn1` [Compound 54, 4-(4-fluorophenyl)-5-(2-(pyridin-3-yloxy)ethoxy)picolinamide]: the IC50 was 1370 nM and the remaining activity at 30 µM was determined as 1.35%. Taken in the same sequence, the figures for `NC(=O)c1cc(-c2ccc(F)cc2)c(OC2CCN(c3ccnc(C(F)(F)F)c3)C2)cn1` (stereo not shown) [Compound 57, 4-(4-fluorophenyl)-5-((1-(2-(trifluoromethyl)pyridin-4-yl)pyrrolidin-3-yl)oxy)picolinamide] were 2120 nM and 2.39%. For `N#Cc1cccc(OCCOc2cnc(C(N)=O)cc2-c2ccc(F)cc2)c1` [Compound 152, 5-(2-(3-cyanophenoxy)ethoxy)-4-(4-fluorophenyl)picolinamide], inhibition was half-maximal at 1220 nM (IC50) and the remaining activity at 30 µM was 1.44%.
